≈ marks a conversion by molar mass, not a printed value. Read-outs that look alike come from different tables or passages of the source.
Columns and labels:
S. aureus MSSA1 = experiment: Broth microdilution antimicrobial assay (MIC/MMC); format: cell-based, Staphylococcus aureus; conditions: for MIC / MBC: Staphylococcus aureus, 24 h; for MIC: 37 °C; for MBC: no growth after sub-culturing
Method: (§1) The microorganisms used in this study include four bacterial (Staphylococcus aureus ATCC25923, methicillin sensitive S. aureus MSSA1, methicillin resistant S. aureus MRSA3 and methicillin resistant S. aureus MRSA4) and three yeast strains (Candida albicans ATCC10231, Candida tropicalis PK233 and Cryptococcus neoformans H99). These microorganisms were taken from our laboratory collection. The fungal and bacterial strains were grown at 37 °C and maintained on Sabouraud Dextrose Agar (SDA, Conda, Madrid, Spain) and nutrient agar (NA, Conda) slants respectively.
(§2) The inocula of bacteria and yeasts were prepared from overnight cultures as previously described. Absorbance was read spectrophotometrically at 530 nm and 600 nm for yeasts and bacteria respectively. The final concentrations of microbial suspensions were 2.5 × 10^5 cells/mL for yeasts and 10^6 CFU/mL for bacteria.
(§3) The antimicrobial activity was evaluated by determining the minimum inhibitory concentrations (MICs). MICs of extracts and compounds were determined by broth micro dilution. Each test sample was dissolved in 10% v/v aqueous dimethylsulfoxide (DMSO) to give a stock solution. This was serially diluted two-fold in Mueller-Hinton Broth (MHB) for bacteria and Sabouraud Dextrose Broth (SDB) for fungi to obtain a concentration range of 4096 to 0.25 μg/mL. Then, 100 μL of each sample concentration was added to respective wells (96-well micro plate) containing 90 μL of SDB/ MHB and 10 μL of inoculum to give final concentration ranges of 2048 to 4 μg/mL (for extracts) and 256 to 0.125 μg/mL (for compounds). Dilutions of nystatin (Sigma-Aldrich, Steinheim, Germany) and ciprofloxacin (Sigma-Aldrich, Steinheim, Germany) were used as positive controls for yeasts and bacteria respectively. Broth with 10 μL of DMSO was used as negative control. The cultured micro plates were covered; then, the contents of each well were mixed thoroughly using a plate shaker (Flow Laboratory, Germany) and incubated at 37 °C for 24 h (bacteria) and 48 h (yeasts) under shaking. After the incubation period, MICs were assessed visually and were taken as the lowest sample concentration at which there was no growth or virtually no growth. The lowest concentration that yielded no growth after the sub-culturing was considered as the minimum microbicidal concentrations (MMCs). All the tests were performed in triplicate.

S. aureus ATCC25923 = experiment: Broth microdilution antimicrobial assay (MIC/MMC); format: cell-based, Staphylococcus aureus; conditions: for MIC / MBC: Staphylococcus aureus, 24 h; for MIC: 37 °C; for MBC: no growth after sub-culturing
Method: as §1, §2, §3

S. aureus MRSA3 = experiment: Broth microdilution antimicrobial assay (MIC/MMC); format: cell-based, Staphylococcus aureus; conditions: S. aureus MRSA3; for MBC / MIC: Staphylococcus aureus, 24 h; for MBC: no growth after sub-culturing; for MIC: 37 °C
Method: as §1, §2, §3

S. aureus MRSA4 = experiment: Broth microdilution antimicrobial assay (MIC/MMC); format: cell-based, Staphylococcus aureus; conditions: S. aureus MRSA4; for MBC / MIC: Staphylococcus aureus, 24 h; for MBC: no growth after sub-culturing; for MIC: 37 °C
Method: as §1, §2, §3

C. tropicalis PK233 = experiment: Broth microdilution antimicrobial assay (MIC/MMC); format: cell-based, Candida tropicalis; conditions: for MIC / MFC: Candida tropicalis, 48 h; for MIC: 37 °C, read-out: MIC; for MFC: no growth after sub-culturing
Method: as §1, §2, §3

C. albicans ATCC10231 = experiment: Broth microdilution antimicrobial assay (MIC/MMC); format: cell-based, Candida albicans; conditions: for MIC: Candida albicans, 37 °C, 48 h, read-out: MIC; for MMC: no growth after sub-culturing
Method: as §1, §2, §3

C. neoformans H99 = experiment: Broth microdilution antimicrobial assay (MIC/MMC); format: cell-based, Cryptococcus neoformans; conditions: for MIC / MFC: Cryptococcus neoformans, 48 h; for MIC: 37 °C, read-out: MIC; for MFC: no growth after sub-culturing
Method: as §1, §2, §3

[1] = tested on: bacterial and fungal strains; experiment: Broth microdilution MIC, range over all tested strains; format: cell-based
Method: as §1, §2, §3

[2] = DPPH free radical scavenging assay; conditions: Fig. 3; vitamin C standard
Method: The free radical scavenging activity of extracts and compounds was evaluated according to described methods. The EC50 (μg/ml), which is the amount of sample necessary to inhibit by 50% the absorbance of free radical DPPH was calculated. Vitamin C was used as a standard control. All the analyses were carried out in triplicate.

[3] = Ferric reducing antioxidant power (FRAP) assay; conditions: Perl's Prussian blue at 700 nm; Fig. 2; BHT positive control
Method: The FRAP was determined by the Fe^3+-Fe^2+ transformation in the presence of extracts and compounds as previously described. The Fe^2+ was monitored by measuring the formation of Perl’s Prussian blue at 700 nm. Butylated hydroxytoluene (BHT) was used as a positive control. All the tests were performed in triplicate.

[4] = range over all bacterial and fungal strains, read-out: MIC

Row | Structure (SMILES) | MMC/MIC (S. aureus MSSA1) | MIC (S. aureus MSSA1) | MBC (S. aureus MSSA1) | MMC/MIC (S. aureus ATCC25923) | MIC (S. aureus ATCC25923) | MBC (S. aureus ATCC25923) | MMC/MIC (S. aureus MRSA3) | MBC (S. aureus MRSA3) | MIC (S. aureus MRSA3) | MMC/MIC (S. aureus MRSA4) | MBC (S. aureus MRSA4) | MIC (S. aureus MRSA4) | MIC (C. tropicalis PK233) | MFC (C. tropicalis PK233) | MIC (C. albicans ATCC10231) | MMC (C. albicans ATCC10231) | MIC (C. neoformans H99) | MFC (C. neoformans H99) | MIC [1, 4] | MMC/MIC (C. tropicalis PK233) | also measured
1 | O=C(O)c1cn(C2CC2)c2cc(N3CCNCC3)c(F)cc2c1=O [Ciprofloxacin, reference compound] | 1 | 1 µg/mL (≈ 3.02 µM) | 1 µg/mL (≈ 3.02 µM) | 1 | 1 µg/mL (≈ 3.02 µM) | 1 µg/mL (≈ 3.02 µM) | 1 | 16 µg/mL (≈ 48.3 µM) | 16 µg/mL (≈ 48.3 µM) | 1 | 32 µg/mL (≈ 96.6 µM) | 32 µg/mL (≈ 96.6 µM) | – | – | – | – | – | – | – | – | –
2 | C[C@H]1[C@H](C)CC[C@]2(C(=O)O)CC[C@]3(C)C(=CC[C@@H]4[C@@]5(C)CC[C@H](O)C(C)(C)[C@@H]5CC[C@]43C)[C@H]12 [Compound 3, ursolic acid] | – | 128 µg/mL (≈ 280 µM) | > 256 µg/mL | – | 256 µg/mL (≈ 561 µM) | > 256 µg/mL | – | > 256 µg/mL | 128 µg/mL (≈ 280 µM) | – | > 256 µg/mL | 128 µg/mL (≈ 280 µM) | 256 µg/mL (≈ 561 µM) | > 256 µg/mL | 256 µg/mL (≈ 561 µM) | > 256 µg/mL | 128 µg/mL (≈ 280 µM) | > 256 µg/mL | 128 to 256 µg/mL (≈ 280 to 561 µM) | – | antimicrobial activity (in words) ([1]; all the tested bacterial and fungal species): active against all the tested bacterial and fungal species
3 | CC[C@H](CC[C@@H](C)[C@H]1CCC2C3CC=C4C[C@@H](O[C@@H]5O[C@H](CO)[C@@H](O)[C@H](O)[C@H]5O)CC[C@]4(C)C3CC[C@@]21C)C(C)C (stereo partly drawn) [Compound 4, sitosterol-3-O-β-D-glucopyranoside] | – | > 256 µg/mL | > 256 µg/mL | – | > 256 µg/mL | > 256 µg/mL | – | > 256 µg/mL | > 256 µg/mL | – | > 256 µg/mL | > 256 µg/mL | 256 µg/mL (≈ 444 µM) | > 256 µg/mL | 256 µg/mL (≈ 444 µM) | > 256 µg/mL | 128 µg/mL (≈ 222 µM) | > 256 µg/mL | – | – | DPPH radical-scavenging activity (in words) [2]: not active; reducing power (FRAP, in words) [3]: not active
4 | O=c1cc(-c2ccc(O)cc2)oc2c([C@@H]3O[C@H](CO)[C@@H](O)[C@H](O)[C@H]3O)c(O)cc(O)c12 [Compound 5, vitexin] | 2 | 64 µg/mL (≈ 148 µM) | 128 µg/mL (≈ 296 µM) | 2 | 64 µg/mL (≈ 148 µM) | 128 µg/mL (≈ 296 µM) | 2 | 128 µg/mL (≈ 296 µM) | 64 µg/mL (≈ 148 µM) | 2 | 256 µg/mL (≈ 592 µM) | 128 µg/mL (≈ 296 µM) | 64 µg/mL (≈ 148 µM) | 128 µg/mL (≈ 296 µM) | 128 µg/mL (≈ 296 µM) | 256 µg/mL | 128 µg/mL (≈ 296 µM) | 128 µg/mL (≈ 296 µM) | – | 2 | MMC/MIC (C. albicans ATCC10231): 2; MMC/MIC (C. neoformans H99): 1; MIC [1]: 64 to 128 µg/mL (≈ 148 to 296 µM)
5 | O=C(C=Cc1ccc(O)cc1)OCC1OC(Oc2c(-c3ccc(O)cc3)oc3cc(O)cc(O)c3c2=O)C(O)C(O)C1O (stereo not drawn) [Compound 6, trans-tiliroside] | 1 | 64 µg/mL (≈ 108 µM) | 64 µg/mL (≈ 108 µM) | 2 | 32 µg/mL (≈ 53.8 µM) | 64 µg/mL (≈ 108 µM) | 2 | 128 µg/mL (≈ 215 µM) | 64 µg/mL (≈ 108 µM) | 1 | 128 µg/mL (≈ 215 µM) | 128 µg/mL (≈ 215 µM) | 64 µg/mL (≈ 108 µM) | 64 µg/mL (≈ 108 µM) | 64 µg/mL (≈ 108 µM) | 64 µg/mL | 64 µg/mL (≈ 108 µM) | 128 µg/mL (≈ 215 µM) | 32 to 128 µg/mL (≈ 53.8 to 215 µM) | 1 | MMC/MIC (C. albicans ATCC10231): 1; MMC/MIC (C. neoformans H99): 2

Source: PMC5956543, “Antimicrobial and antioxidant activities of triterpenoid and phenolic derivatives from two Cameroonian Melastomataceae plants: Dissotis senegambiensis and Amphiblemma monticola” (BMC Complementary and Alternative Medicine, 2018)
